# Measurements as given in paper PMC3264552, “Expression in Antennae and Reproductive Organs Suggests a Dual Role of an Odorant-Binding Protein in Two Sibling Helicoverpa Species” (PLoS ONE, 2012).
# Molecular target: T1, recombinant HarmOBP10 (Helicoverpa armigera, UniProt G9I573)
# Assay: Fluorescence binding assay of the probe 1-NPN to recombinant HarmOBP10
# Conditions: 2 µM protein in 50 mM Tris-HCl, pH 7.4; single binding site; averages of three replicates; read-out: dissociation constant of 1-NPN
# Procedure: Emission fluorescence spectra were recorded on a Hitachi F-4500 at 25°C in a right angle configuration, with a 1 cm light path quartz cuvette and 5 nm slits for both excitation and emission. […]
# The probe was excited at 337 nm and emission spectra were recorded between 380 and 450 nm. […] Dissociation constant for 1-NPN and the stoichiometry of binding was obtained processing the data with Prism software. Dissociation constants of the competitors were calculated from the corresponding IC50 values (concentrations of ligands halving the initial fluorescence value of 1-NPN), using the equation: KD = [IC50]/1+[1-NPN]/K1-NPN, [1-NPN] being the free concentration of 1-NPN and K1-NPN being the dissociation constant of the complex protein/1-NPN.
# T1 sequence (G9I573 entry or part of it): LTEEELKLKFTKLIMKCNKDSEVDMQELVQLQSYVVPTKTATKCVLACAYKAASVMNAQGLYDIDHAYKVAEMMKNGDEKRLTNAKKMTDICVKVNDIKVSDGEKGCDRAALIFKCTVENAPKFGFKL
row,SMILES,Kd
1,c1ccc(Nc2cccc3ccccc23)cc1 [1-NPN],5.7 µM

# Same assay, conditions: pH range from 5 to 9.4
row,SMILES,effect of pH on affinity of 1-NPN
1,c1ccc(Nc2cccc3ccccc23)cc1 [1-NPN],marked loss of affinity in acidic conditions

# Molecular target: T1, recombinant HarmOBP10
# Assay: Competitive fluorescence binding assay (displacement of 1-NPN from HarmOBP10)
# Conditions: not given
# Procedure: Emission fluorescence spectra were recorded on a Hitachi F-4500 at 25°C in a right angle configuration, with a 1 cm light path quartz cuvette and 5 nm slits for both excitation and emission. The protein was dissolved in 50 mM Tris-HCl buffer, pH 7.4, while ligands were added as 1 mM methanol solutions.
# The probe was excited at 337 nm and emission spectra were recorded between 380 and 450 nm. […] Dissociation constant for 1-NPN and the stoichiometry of binding was obtained processing the data with Prism software.
SMILES,IC50,Kd
C=CCCCCCCCCCC [1-Dodecene],6 µM,4.7 µM
CCCCCCCCCCCCCCO [1-Tetradecanol],1.8 µM,1.4 µM
COc1cc(/C=C/C=O)ccc1O [Coniferyl aldehyde],7.5 µM,5.8 µM

# Same assay, conditions: authors' comment on Table 1
row,SMILES,"quality as ligand of OBP10, in words"
1,C=CCCCCCCCCCC [1-Dodecene],rather good ligand
2,CCCCCCCCCCCCCCO [1-Tetradecanol],maximum of affinity
3,CCCCC/C(C=O)=C/c1ccccc1 [a-Amylcinnamaldehyde],Even better ligands
4,CCCCOC(=O)c1ccccc1 [n-Butyl benzoate],poor ligand
5,CCCCCCCCOC(=O)c1ccccc1 [n-Octyl benzoate],the best
6,CC(C)(C)c1ccc(C(=O)c2ccccc2)cc1 [p-tert-Butylbenzophenone],Even better ligands

# Same assay, conditions: calculated from IC50: KD = [IC50]/1+[1-NPN]/K1-NPN; read-out: KD (calculated dissociation constant)
row,SMILES,Kd
1,CCCCCCCCCCC(C)=O [2-Dodecanone],13.2 µM
2,"CC(C)CCCC(C)CCOC(=O)c1ccccc1 (stereo not shown) [3,7-Dimethyloctyl benzoate]",4.7 µM
3,CCCCOC(=O)c1ccc(C(C)(C)C)cc1 [Butyl p-tert-butylbenzoate],10.9 µM
4,CCCCCCCCCC(=O)OCC [Ethyl decanoate],4.3 µM
5,CC(C)=CCC/C(C)=C/CC/C(C)=C/CO [Farnesol],5.4 µM
6,CC(CCCC(C)(C)O)CC(=O)O (stereo not shown) [Hydroxycitronellic acid],12.4 µM
7,CCCCC/C(C=O)=C/c1ccccc1 [a-Amylcinnamaldehyde],2.7 µM
8,CCCCOC(=O)C=Cc1ccccc1 [n-Butyl cinnamate],9.7 µM
9,CCCCCCOC(=O)c1ccccc1 [n-Hexyl benzoate],5.8 µM
10,CCCCCCCCOC(=O)c1ccccc1 [n-Octyl benzoate],3.1 µM

# Second part, the compound after the results:
row,Kd,SMILES
1,10.5 µM,CC(CC=O)CCCC(C)(C)O (stereo not shown) [Hydroxycitronellal]
2,9.7 µM,COC(C=O)=Cc1ccccc1 [a-Methoxycinnamaldehyde]
3,2.6 µM,CC(C)(C)c1ccc(C(=O)c2ccccc2)cc1 [p-tert-Butylbenzophenone]

# Same assay, conditions: max conc 1.6 (titration 0.5–1.6 µM); protein and 1-NPN both 2 µM; percent of fluorescence without competitor; read-out: % at max (percent of fluorescence measured at the maximum concentration)
row,activity at 1.6 µM,SMILES
1,65%,CCCCCC/C=C\CCCCCCCCO [(Z)-9-Hexadecen-1-ol]
2,73%,CCCCCC/C=C\CCCCCCCC=O [(Z)-9-Hexadecenal]
3,74%,CCCC/C=C\CCCCCCCCCCO [(Z)-11-Hexadecen-1-ol]
4,76%,CCCC/C=C\CCCCCCCCCC=O [(Z)-11-Hexadecenal]

# Same assay, conditions: max conc 6 (titration 0.5–6 µM); protein and 1-NPN both 2 µM; percent of fluorescence without competitor; read-out: % at max (percent of fluorescence measured at the maximum concentration)
row,SMILES,activity at 6 µM
1,CCCCCCCCCC(=O)O [Decanoic acid],62%
2,CCCCCCCCCCCC=O [Dodecanal],73%

# Results, then the compound that gave them:
row,activity at 6 µM,SMILES
1,63%,CCCCCCCCCCO [1-Decanol]
2,62%,CCCCCCCCCCCCS [1-Dodecanthiol]
3,55%,CCCCCCCCCCCCCCCCO [1-Hexadecanol]
4,56%,CCCCCCCCCCCCCCCCCCO [1-Octadecanol]
5,85%,CCCCCCCCCCCCCO [1-Tridecanol]
6,70%,CCCCCCCCCCCC(=O)OCC [Ethyl laurate]
7,73%,CCCCCCCCCCCCCC(=O)OCC [Ethyl myristate]
8,69%,CCCCCCCCCCCCCCCC(=O)OCC [Ethyl palmitate]
9,56%,CCCCC/C=C\C/C=C\CCCCCCCC(=O)O [Linoleic acid]

# Same assay, conditions: max conc 16 (titration 2–16 µM); protein and 1-NPN both 2 µM; percent of fluorescence without competitor
row,SMILES,% at max (percent of fluorescence measured at the maximum concentration)
1,CCCCOC(=O)c1ccc(C(C)(C)C)cc1 [Butyl p-tert-butylbenzoate],48%
2,CC(C)=CCCC(C)=CC#N [Citralva],60%
3,CC(C=O)Cc1ccc(C(C)C)cc1 (stereo not shown) [Cyclamen aldehyde],>100%
4,CC(CCCC(C)(C)O)CC(=O)O (stereo not shown) [Hydroxycitronellic acid],50%
5,CCCCC/C(C=O)=C/c1ccccc1 [a-Amylcinnamaldehyde],13%
6,COC(C=O)=Cc1ccccc1 [a-Methoxycinnamaldehyde],37%
7,CCCCOC(=O)C=Cc1ccccc1 [n-Butyl cinnamate],42%
8,CCCCCCOC(=O)c1ccccc1 [n-Hexyl benzoate],35%
9,CCCCCCCCOC(=O)c1ccccc1 [n-Octyl benzoate],29%
10,CC(C)c1ccc(C=O)cc1 [p-Isopropylbenzaldehyde],77%
11,CC(C)(C)c1ccc(C(=O)c2ccccc2)cc1 [p-tert-Butylbenzophenone],13%

# Same assay, conditions: max conc 16 (titration 2–16 µM); protein and 1-NPN both 2 µM; percent of fluorescence without competitor; read-out: % at max (percent of fluorescence measured at the maximum concentration)
row,SMILES,activity at 16 µM
1,CCCCCCCCCCC(C)=O [2-Dodecanone],51%
2,CC(=O)OCCc1ccccc1 [2-Phenylethyl acetate],77%
3,CCCCCCCCCCCC(C)=O [2-Tridecanone],60%
4,"CC(=O)OCCC(C)CCCC(C)C (stereo not shown) [3,7-Dimethyloctyl acetate]",59%
5,"CC(C)CCCC(C)CCOC(=O)c1ccccc1 (stereo not shown) [3,7-Dimethyloctyl benzoate]",34%
6,COc1ccc(-c2ccccc2)cc1 [4-Phenylanisole],65%
7,O=C(O)CCCc1ccccc1 [4-Phenylbutyric acid],73%
8,CCCCCCCCC=O [Nonanal],> 100%
9,CCCCOC(=O)c1ccccc1 [n-Butyl benzoate],62%

# Now from value to compound:
row,activity at 16 µM,SMILES
1,> 100%,CCCCCCCCCC=O [Decanal]
2,> 100%,CCCCCCCCCCCCOC(C)=O [Dodecyl acetate]
3,69%,CC(C)=CCC/C(C)=C/CO [Geraniol]
4,48%,CC(CC=O)CCCC(C)(C)O (stereo not shown) [Hydroxycitronellal]
5,> 100%,COC(=O)C=Cc1ccccc1 [Methyl cinnamate]

# Same assay, conditions: protein and 1-NPN both 2 µM, Tris pH 7.4; unit from method text, not in table; read-out: IC50 (concentration of ligand halving the initial fluorescence value)
row,SMILES,IC50
1,"CC(C)CCCC(C)CCOC(=O)c1ccccc1 (stereo not shown) [3,7-Dimethyloctyl benzoate]",6 µM
2,CCCCOC(=O)c1ccc(C(C)(C)C)cc1 [Butyl p-tert-butylbenzoate],14 µM
3,CCCCCCCCCC(=O)OCC [Ethyl decanoate],5.5 µM
4,CC(CCCC(C)(C)O)CC(=O)O (stereo not shown) [Hydroxycitronellic acid],16 µM
5,CCCCC/C(C=O)=C/c1ccccc1 [a-Amylcinnamaldehyde],3.5 µM
6,CCCCOC(=O)C=Cc1ccccc1 [n-Butyl cinnamate],12.5 µM
7,CCCCCCOC(=O)c1ccccc1 [n-Hexyl benzoate],7.5 µM
8,CCCCCCCCOC(=O)c1ccccc1 [n-Octyl benzoate],4 µM

# Other lines, results leading:
row,IC50,SMILES
1,13.5 µM,CC(CC=O)CCCC(C)(C)O (stereo not shown) [Hydroxycitronellal]
2,12.5 µM,COC(C=O)=Cc1ccccc1 [a-Methoxycinnamaldehyde]
3,3.3 µM,CC(C)(C)c1ccc(C(=O)c2ccccc2)cc1 [p-tert-Butylbenzophenone]

# Same assay, conditions: read-out: % at max (percent of fluorescence measured at the maximum concentration)
SMILES,activity at 6 µM,activity at 16 µM
C=CCCCCCCCCCC [1-Dodecene],50%,–
CCCCCCCCCCCCCCO [1-Tetradecanol],36%,–
Cc1ccc2ccccc2c1 [2-Methylnaphthalene],–,75%
O=C(O)/C=C/c1ccccc1 [Cinnamic acid],–,74%
CC(C)=CCC/C(C)=C/C=O [Citral],–,66%
COc1cc(/C=C/C=O)ccc1O [Coniferyl aldehyde],–,30%
CCCCCCCCCC(=O)OCC [Ethyl decanoate],44%,–
C=CCc1ccc(O)c(OC)c1 [Eugenol],–,80%
CC(C)=CCC/C(C)=C/CC/C(C)=C/CO [Farnesol],54%,–
COc1cc(CC(=O)O)ccc1O [Homovanillic acid],–,66%
